For one assay, the target named is T1, hJNK1 (Homo sapiens, UniProt P45983).
T1 construct: His; purchased Upstate 14-327
As to the kind of experiment: hJNK1 | IC50. From the text:
(§1) Table printed on a drawing sheet, Fig. 4
Head of the field: hJNK1 | IC50
(§2) The patent's description of the figure: FIG. 4: Table illustrating the inhibitory efficacy of several JNK inhibitors according to the present invention, which are fusion proteins of a JNK inhibitory (poly-)peptide sequence and a transporter sequence. Given are the IC50 values in the nM range, the respective standard error of the mean (SEM) and the number of experiments performed (n).
(§3) First copying reader's note: The sheet prints no unit for IC50 (the description says nM range); decimal commas are used, except for three IC50 cells printed with a point (3820.81, 5340.33, 8130.86).
Where the first naming reader finds the target: head: hJNK1 | IC50

The target of another assay is hJNK3 (Homo sapiens, UniProt P53779). As to the kind of experiment: hJNK3 | IC50.
hJNK3, sequence (P53779 whole entry, looked up): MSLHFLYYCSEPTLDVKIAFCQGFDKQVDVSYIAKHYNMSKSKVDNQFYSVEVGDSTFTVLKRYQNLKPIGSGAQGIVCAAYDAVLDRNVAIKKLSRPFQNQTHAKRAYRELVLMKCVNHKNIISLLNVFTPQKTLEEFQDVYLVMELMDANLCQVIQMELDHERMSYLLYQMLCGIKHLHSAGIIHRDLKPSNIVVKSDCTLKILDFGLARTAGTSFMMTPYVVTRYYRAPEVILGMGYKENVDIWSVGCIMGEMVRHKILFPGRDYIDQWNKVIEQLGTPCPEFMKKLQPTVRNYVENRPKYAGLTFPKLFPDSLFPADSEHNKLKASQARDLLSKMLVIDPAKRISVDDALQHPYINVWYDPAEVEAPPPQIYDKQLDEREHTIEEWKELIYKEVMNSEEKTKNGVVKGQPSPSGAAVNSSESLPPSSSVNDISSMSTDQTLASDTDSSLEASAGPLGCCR
Text: as §1
Head of the field: hJNK3 | IC50
as §2, §3
Where the first naming reader finds the target: head: hJNK3 | IC50

The target of another assay is hJNK2 (Homo sapiens, UniProt P45984). Briefly: hJNK2 | IC50.
hJNK2, sequence (P45984 whole entry, looked up): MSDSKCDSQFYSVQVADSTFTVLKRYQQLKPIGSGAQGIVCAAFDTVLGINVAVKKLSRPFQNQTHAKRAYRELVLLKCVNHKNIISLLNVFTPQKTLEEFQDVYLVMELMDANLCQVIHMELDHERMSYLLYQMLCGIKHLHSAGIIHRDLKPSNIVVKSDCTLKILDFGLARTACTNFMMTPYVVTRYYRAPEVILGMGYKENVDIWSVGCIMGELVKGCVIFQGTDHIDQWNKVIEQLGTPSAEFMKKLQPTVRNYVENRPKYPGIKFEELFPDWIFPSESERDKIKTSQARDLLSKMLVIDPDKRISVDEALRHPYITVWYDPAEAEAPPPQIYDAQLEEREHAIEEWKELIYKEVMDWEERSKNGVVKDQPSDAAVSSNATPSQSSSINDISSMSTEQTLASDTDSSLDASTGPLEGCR
Text: as §1
Head of the field: hJNK2 | IC50
as §2, §3
Where the first naming reader finds the target: head: hJNK2 | IC50

Our source for the IC50 values is patent US11331364B2, “Use for JNK inhibitor molecules for treatment of various diseases” (Xigen Inflammation Ltd., priority 2014, dated 2022).

Where two headings read alike, the source gives them in different places. Square brackets hold non-standard residues; d marks the D form. Peptide text beside a SMILES is read from it.

One may read the IC50 as the concentration needed to halve the response being measured.

T1 sequence (P45983 whole entry, looked up): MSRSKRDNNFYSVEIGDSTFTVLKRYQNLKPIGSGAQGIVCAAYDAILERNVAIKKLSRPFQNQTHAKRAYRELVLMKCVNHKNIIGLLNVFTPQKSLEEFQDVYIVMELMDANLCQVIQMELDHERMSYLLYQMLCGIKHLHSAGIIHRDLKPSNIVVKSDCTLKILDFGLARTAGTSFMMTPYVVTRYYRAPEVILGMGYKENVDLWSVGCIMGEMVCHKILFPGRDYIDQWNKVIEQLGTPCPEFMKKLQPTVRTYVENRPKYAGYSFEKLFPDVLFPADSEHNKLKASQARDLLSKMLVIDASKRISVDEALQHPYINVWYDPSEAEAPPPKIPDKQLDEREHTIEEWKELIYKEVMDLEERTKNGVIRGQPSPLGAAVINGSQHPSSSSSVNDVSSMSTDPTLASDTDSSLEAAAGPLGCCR

On to `CC(C)C[C@H](NC(=O)[C@H](CC(N)=O)NC(=O)[C@H](CC(C)C)NC(=O)[C@@H](NC(=O)[C@@H](C)NC(=O)[C@@H]1CCCN1C(=O)[C@H](CCCNC(=N)N)NC(=O)[C@@H](CCCNC(=N)N)NC(=O)[C@H](CCCNC(=N)N)NC(=O)[C@H](CCCNC(=N)N)NC(=O)[C@H](CCC(N)=O)NC(=O)[C@@H](CCCNC(=N)N)NC(=O)[C@H](CCCNC(=N)N)NC(=O)[C@H](CCCCN)NC(=O)[C@H](CCCCN)NC(=O)[C@H](N)CCCNC(=N)N)[C@@H](C)O)C(=O)N[C@H](Cc1ccccc1)C(N)=O` [SEQ ID NO: 182, rKKRrQRRrRPaTLNLf] (H-[dR]KKR[dR]QRR[dR]RP[dA]TLNL[dF]-NH2), for which the figures for the IC50 at hJNK1 (read-out: hJNK1 | IC50), at hJNK3 (read-out: hJNK3 | IC50) and on hJNK2 (read-out: hJNK2 | IC50) were 1680 nM, 59.4 nM and 168 nM, respectively.
Regarding `CC(C)C[C@H](NC(=O)[C@H](C)NC(=O)[C@H](CCCCN)NC(=O)[C@H](CCCNC(=N)N)NC(=O)[C@H](CCCCN)NC(=O)CNC(=O)[C@@H](CCCNC(=N)N)NC(=O)[C@H](CCCNC(=N)N)NC(=O)[C@H](CCCNC(=N)N)NC(=O)[C@H](CCC(N)=O)NC(=O)[C@@H](CCCNC(=N)N)NC(=O)[C@H](CCCNC(=N)N)NC(=O)[C@H](CCCCN)NC(=O)[C@H](CCCCN)NC(=O)[C@H](N)CCCNC(=N)N)C(=O)N[C@@H](CCCCN)C(=O)N[C@@H](CC(C)C)C(=O)N[C@H](Cc1ccccc1)C(N)=O` [SEQ ID NO: 188] (H-[dR]KKR[dR]QRR[dR]GKRKALKL[dF]-NH2), the IC50 at hJNK1 (read-out: hJNK1 | IC50) worked out at 1420 nM; at hJNK3 (read-out: hJNK3 | IC50), 36.1 nM; at hJNK2 (read-out: hJNK2 | IC50) it was 98.1 nM.
On to `CC(C)C[C@H](NC(=O)[C@H](CC(=O)O)NC(=O)[C@@H](NC(=O)[C@@H]1CCCN1C(=O)[C@H](CCCNC(=N)N)NC(=O)[C@@H](CCCNC(=N)N)NC(=O)[C@H](CCCNC(=N)N)NC(=O)[C@H](CCC(N)=O)NC(=O)[C@@H](CCCNC(=N)N)NC(=O)[C@H](CCCNC(=N)N)NC(=O)[C@H](CCCCN)NC(=O)[C@H](CCCCN)NC(=O)[C@H](N)CCCNC(=N)N)[C@@H](C)O)C(=O)N[C@H](CCCNC(=N)N)C(=O)N[C@@H](CC(C)C)C(=O)N[C@H](Cc1c[nH]c2ccccc12)C(N)=O` [SEQ ID NO: 181, rKKRrQRrRPTDLrLw] (H-[dR]KKR[dR]QR[dR]RPTDL[dR]L[dW]-NH2), for which the values for the IC50 at hJNK1 (read-out: hJNK1 | IC50), on hJNK3 (read-out: hJNK3 | IC50) and on hJNK2 (read-out: hJNK2 | IC50) were 294 nM, 47.6 nM and 160 nM, respectively.
Turning to `CC(C)C[C@H](NC(=O)[C@H](CC(N)=O)NC(=O)[C@H](CC(C)C)NC(=O)[C@@H](NC(=O)[C@@H](NC(=O)[C@@H]1CCCN1C(=O)[C@H](CCCNC(=N)N)NC(=O)[C@@H](CCCCN)NC(=O)[C@@H]1CCCN1C(=O)[C@H](CCCNC(=N)N)NC(=O)[C@@H](CCCNC(=N)N)NC(=O)[C@H](CCCNC(=N)N)NC(=O)[C@H](CCCNC(=N)N)NC(=O)[C@H](CCC(N)=O)NC(=O)[C@@H](CCCNC(=N)N)NC(=O)[C@H](CCCNC(=N)N)NC(=O)[C@H](CCCCN)NC(=O)[C@H](CCCCN)NC(=O)[C@H](N)CCCNC(=N)N)[C@@H](C)O)[C@@H](C)O)C(=O)N[C@H](Cc1c[nH]c2ccccc12)C(N)=O` [SEQ ID NO: 176, rKKRrQRRrRPkRPTTLNLw] (H-[dR]KKR[dR]QRR[dR]RP[dK]RPTTLNL[dW]-NH2), the results for the IC50 at hJNK1 (read-out: hJNK1 | IC50), on hJNK3 (read-out: hJNK3 | IC50) and on hJNK2 (read-out: hJNK2 | IC50) were 131 nM, 22.4 nM and 40.3 nM, respectively.
Regarding `CC(C)C[C@H](NC(=O)[C@H](CC(N)=O)NC(=O)[C@H](CC(C)C)NC(=O)[C@@H](NC(=O)[C@@H](NC(=O)[C@@H]1CCCN1C(=O)[C@H](CCCNC(=N)N)NC(=O)[C@@H](CCCNC(=N)N)NC(=O)[C@H](CCCNC(=N)N)NC(=O)[C@H](CCCNC(=N)N)NC(=O)[C@H](CCC(N)=O)NC(=O)[C@@H](CCCNC(=N)N)NC(=O)[C@H](CCCNC(=N)N)NC(=O)[C@H](CCCCN)NC(=O)[C@H](CCCCN)NC(=O)[C@H](N)CCCNC(=N)N)[C@@H](C)O)[C@@H](C)O)C(=O)N[C@H](Cc1ccccc1)C(N)=O` [SEQ ID NO: 174, rKKRrQRRrRPTTLNLf] (H-[dR]KKR[dR]QRR[dR]RPTTLNL[dF]-NH2), the IC50 was determined as 334 nM at hJNK1 (read-out: hJNK1 | IC50), 63.1 nM at hJNK3 (read-out: hJNK3 | IC50) and 120 nM at hJNK2 (read-out: hJNK2 | IC50).
With `CC(C)C[C@H](NC(=O)[C@@H](NC(=O)[C@@H](NC(=O)[C@@H]1CCCN1C(=O)[C@H](CCCNC(=N)N)NC(=O)[C@@H](CCCNC(=N)N)NC(=O)[C@H](CCCNC(=N)N)NC(=O)[C@H](CCCNC(=N)N)NC(=O)[C@H](CCC(N)=O)NC(=O)[C@@H](CCCNC(=N)N)NC(=O)[C@H](CCCNC(=N)N)NC(=O)[C@H](CCCCN)NC(=O)[C@H](CCCCN)NC(=O)[C@H](N)CCCNC(=N)N)[C@@H](C)O)[C@@H](C)O)C(=O)N[C@H](CCCNC(=N)N)C(=O)N[C@@H](CC(C)C)C(=O)N[C@H](Cc1c[nH]c2ccccc12)C(N)=O` [SEQ ID NO: 178, rKKRrQRRrRPTTLrLw] (H-[dR]KKR[dR]QRR[dR]RPTTL[dR]L[dW]-NH2), the IC50 on hJNK1 (read-out: hJNK1 | IC50) turned out to be 329 nM; on hJNK3 (read-out: hJNK3 | IC50) it was 30.4 nM; at hJNK2 (read-out: hJNK2 | IC50), 109 nM.
For the compound `CC(C)C[C@H](NC(=O)[C@@H](NC(=O)[C@@H](NC(=O)[C@@H]1CCCN1C(=O)[C@H](CCCNC(=N)N)NC(=O)[C@@H](CCCNC(=N)N)NC(=O)[C@H](CCCNC(=N)N)NC(=O)[C@H](CCC(N)=O)NC(=O)[C@@H](CCCNC(=N)N)NC(=O)[C@H](CCCNC(=N)N)NC(=O)[C@H](CCCCN)NC(=O)[C@H](CCCCN)NC(=O)[C@H](N)CCCNC(=N)N)[C@@H](C)O)[C@@H](C)O)C(=O)N[C@H](CCCNC(=N)N)C(=O)N[C@@H](CC(C)C)C(=O)N[C@H](Cc1c[nH]c2ccccc12)C(N)=O` [SEQ ID NO: 179, rKKRrQRrRPTTLrLw] (H-[dR]KKR[dR]QR[dR]RPTTL[dR]L[dW]-NH2), the results for the half-maximal inhibitory concentration (IC50) on hJNK1 (read-out: hJNK1 | IC50), on hJNK3 (read-out: hJNK3 | IC50) and at hJNK2 (read-out: hJNK2 | IC50) were 249 nM, 45.7 nM and 122 nM, respectively.
As for `CC(C)C[C@H](NC(=O)[C@H](CC(N)=O)NC(=O)[C@H](CC(C)C)NC(=O)[C@@H](NC(=O)[C@@H](NC(=O)[C@@H]1CCCN1C(=O)[C@H](CCCNC(=N)N)NC(=O)[C@H](CCCCN)NC(=O)[C@@H]1CCCN1C(=O)[C@H](CCCNC(=N)N)NC(=O)[C@@H]1CCCN1C(=O)[C@@H]1CCCN1C(=O)[C@H](CCCNC(=N)N)NC(=O)[C@H](CCCNC(=N)N)NC(=O)[C@H](CCCNC(=N)N)NC(=O)[C@H](CCC(N)=O)NC(=O)[C@H](CCCNC(=N)N)NC(=O)[C@H](CCCNC(=N)N)NC(=O)[C@H](CCCCN)NC(=O)[C@H](CCCCN)NC(=O)[C@H](CCCNC(=N)N)NC(=O)CN)[C@@H](C)O)[C@@H](C)O)C(=O)N[C@@H](Cc1ccccc1)C(=O)N1CCC[C@H]1C(=O)N[C@@H](CCC(N)=O)C(=O)N[C@H](C(=O)N1CCC[C@H]1C(=O)N[C@@H](CCCNC(=N)N)C(=O)N[C@@H](CO)C(=O)N[C@@H](CCC(N)=O)C(=O)N[C@@H](CC(=O)O)C(N)=O)C(C)C` [SEQ ID NO: 196] (H-GRKKRRQRRRPPRPKRPTTLNLFPQVPRSQD-NH2), the values for the IC50 on hJNK1, at hJNK3 and against hJNK2 were 42.2 nM, 5.22 nM and 8.43 nM, respectively.
With `CC(C)C[C@@H](NC(=O)[C@@H](Cc1ccccc1)NC(=O)[C@H]1CCCN1C(=O)[C@@H](CCC(N)=O)NC(=O)[C@H](NC(=O)[C@H]1CCCN1C(=O)[C@@H](CCCNC(=N)N)NC(=O)[C@@H](CO)NC(=O)[C@@H](CCC(N)=O)NC(=O)[C@H](N)CC(=O)O)C(C)C)C(=O)N[C@H](CC(N)=O)C(=O)N[C@H](CC(C)C)C(=O)N[C@@H](C(=O)N[C@@H](C(=O)N1CCC[C@@H]1C(=O)N[C@H](CCCNC(=N)N)C(=O)N[C@H](CCCCN)C(=O)N1CCC[C@@H]1C(=O)N[C@H](CCCNC(=N)N)C(=O)N1CCC[C@@H]1C(=O)N1CCC[C@@H]1C(=O)N[C@H](CCCNC(=N)N)C(=O)N[C@H](CCCNC(=N)N)C(=O)N[C@H](CCCNC(=N)N)C(=O)N[C@H](CCC(N)=O)C(=O)N[C@H](CCCNC(=N)N)C(=O)N[C@H](CCCNC(=N)N)C(=O)N[C@H](CCCCN)C(=O)N[C@H](CCCCN)C(=O)N[C@H](CCCNC(=N)N)C(=O)NCC(N)=O)[C@H](C)O)[C@H](C)O` [SEQ ID NO: 197, dqsrpvqpflnlttprkprpprrrqrrkkrg] (H-[dD][dQ][dS][dR][dP][dV][dQ][dP][dF][dL][dN][dL][dT][dT][dP][dR][dK][dP][dR][dP][dP][dR][dR][dR][dQ][dR][dR][dK][dK][dR]G-NH2), the IC50 was 24400 nM on hJNK1 (read-out: hJNK1 | IC50), 1290 nM at hJNK3 (read-out: hJNK3 | IC50) and 802 nM at hJNK2 (read-out: hJNK2 | IC50).
On to `C[C@H](NC(=O)[C@H](C)NC(=O)[C@@H](C)NC(=O)[C@H](C)NC(=O)[C@H](C)NC(=O)[C@@H](CCCCN)NC(=O)[C@@H]1CCCN1C(=O)[C@H](CCCNC(=N)N)NC(=O)[C@@H](CCCNC(=N)N)NC(=O)[C@H](CCCNC(=N)N)NC(=O)[C@H](CCCNC(=N)N)NC(=O)[C@H](CCC(N)=O)NC(=O)[C@@H](CCCNC(=N)N)NC(=O)[C@H](CCCNC(=N)N)NC(=O)[C@H](CCCCN)NC(=O)[C@H](CCCCN)NC(=O)[C@H](N)CCCNC(=N)N)C(=O)N[C@@H](CC(N)=O)C(=O)N[C@@H](C)C(=O)N[C@H](Cc1ccccc1)C(N)=O` [compound 200, NH2 r K K R r Q R R r R P k A A a A A N A f CONH2] (H-[dR]KKR[dR]QRR[dR]RP[dK]AA[dA]AANA[dF]-NH2), for which, at hJNK2, half-maximal inhibition (IC50) required 3320 nM.
